Results: patent US10562891B2, “Quinazolinones as PARP14 inhibitors” (Ribon Therapeutics Inc., priority 2017, dated 2020)
Where a name gives a salt, the structure may show the parent alone.

biological target: catalytic domain of human PARP14 (Homo sapiens (Human), UniProt Q460N5); test: Enzymatic assay for inhibition of PARP14 (DELFIA, auto-modification with biotin-NAD); assay type: biochemical; conditions: auto-modification of PARP14 by biotin-NAD, 50 nM PARP14, 3 μM biotin-NAD
Procedure, shortened: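 DELFIA auto-modification read-out: europium-streptavidin bound to biotin-NAD incorporated onto nickel-captured His-TEV PARP14 catalytic domain. Compound preincubated 30 min, then 50 nM enzyme with 3 μM biotin-NAD reacted 3 h, all at 25 °C, pH 8, then NAD quench. Percent inhibition normalized to rucaparib/DMSO wells, fitted (4- or 3-parameter) for IC50.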

Sequence of catalytic domain of human PARP14 (Q460N5 1611-1801): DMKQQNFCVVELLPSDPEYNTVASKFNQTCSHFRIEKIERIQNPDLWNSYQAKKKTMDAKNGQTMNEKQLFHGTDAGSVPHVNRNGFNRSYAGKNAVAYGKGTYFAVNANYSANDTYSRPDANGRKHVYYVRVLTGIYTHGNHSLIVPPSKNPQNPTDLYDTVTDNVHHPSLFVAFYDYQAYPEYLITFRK

Structure (SMILES) | IC50
O=c1[nH]c(CSC2CCNCC2)nc2cc(NCCN3CCOCC3)cc(F)c12 [Example 277, 5-Fluoro-7-((2-morpholinoethyl)amino)-2-((piperidin-4-ylthio)methyl)quinazolin-4(3H)-one dihydrochloride] | < 1 µM
O=c1[nH]c(CSC2CCNCC2)nc2cc(OCC3CC3)cc(F)c12 [Example 278, 7-(Cyclopropylmethoxy)-5-fluoro-2-((piperidin-4-ylthio)methyl)quinazolin-4(3H)-one] | < 1 µM
CC(C)(O)C(=O)N1CCC(SCc2nc3cc(NC4CCCC4)cc(F)c3c(=O)[nH]2)CC1 [Example 279, 7-(Cyclopentylamino)-5-fluoro-2-(((1-(2-hydroxy-2-methylpropanoyl)piperidin-4-yl)thio)methyl)quinazolin-4(3H)-one] | < 1 µM
O=c1[nH]c(CSC2CCNCC2)nc2cc(OCC3CCC3)cc(F)c12 [Example 280, 7-(Cyclobutylmethoxy)-5-fluoro-2-((piperidin-4-ylthio)methyl)quinazolin-4(3H)-one 2,2,2-trifluoroacetate] | < 1 µM
O=c1[nH]c(CSC2CCN(Cc3ccccn3)CC2)nc2cc(NC3CCCC3)cc(F)c12 [Example 281, 7-(Cyclopentylamino)-5-fluoro-2-(((1-(pyridin-2-ylmethyl)piperidin-4-yl)thio)methyl)quinazolin-4(3H)-one] | < 1 µM
O=c1[nH]c(CSC2CCNCC2)nc2cc(OCC3CCCC3)cc(F)c12 [Example 282, 7-(Cyclopentylmethoxy)-5-fluoro-2-((piperidin-4-ylthio)methyl)quinazolin-4(3H)-one 2,2,2-trifluoroacetate] | < 1 µM
CNC(=O)CN1CCC(SCc2nc3cc(NC4CCCC4)cc(F)c3c(=O)[nH]2)CC1 [Example 283, 2-(4-(((7-(Cyclopentylamino)-5-fluoro-4-oxo-3,4-dihydroquinazolin-2-yl)methyl)thio)piperidin-1-yl)-N-methylacetamide hydrochloride] | < 1 µM
Cc1cc(NCC2CC2(F)F)cc2nc(CSC3CCNCC3)[nH]c(=O)c12 (centres unmarked) [Example 284, 7-(((2,2-Difluorocyclopropyl)methyl)amino)-5-methyl-2-((piperidin-4-ylthio)methyl)quinazolin-4(3H)-one hydrochloride] | < 1 µM
N#CCN1CCC(SCc2nc3cc(NC4CCCC4)cc(F)c3c(=O)[nH]2)CC1 [Example 285, 2-(4-(((7-(Cyclopentylamino)-5-fluoro-4-oxo-3,4-dihydroquinazolin-2-yl)methyl)thio)piperidin-1-yl)acetonitrile] | < 1 µM
NC(=O)C[C@H]1CC[C@H](SCc2nc3cc(NC4CCCC4)cc(F)c3c(=O)[nH]2)CC1 [Example 286, 2-(Trans-4-(((7-(cyclopentylamino)-5-fluoro-4-oxo-3,4-dihydroquinazolin-2-yl)methyl)thio)cyclohexyl)acetamide] | < 1 µM
O=c1[nH]c(CSC2CCOCC2)nc2cc(NCCN3CCOCC3)cc(F)c12 [Example 287, 5-Fluoro-7-((2-morpholinoethyl)amino)-2-(((tetrahydro-2H-pyran-4-yl)thio)methyl)quinazolin-4(3H)-one] | < 1 µM
O=c1[nH]c(CSC2CCOCC2)nc2cc(NC3CCN(CC(F)(F)F)CC3)cc(F)c12 [Example 288, 5-Fluoro-2-(((tetrahydro-2H-pyran-4-yl)thio)methyl)-7-((1-(2,2,2-trifluoroethyl)piperidin-4-yl)amino)quinazolin-4(3H)-one] | < 1 µM
O=c1[nH]c(CSC2CCNCC2)nc2cc(NCC3CCC3)c(F)cc12 [Example 289, 7-((Cyclobutylmethyl)amino)-6-fluoro-2-((piperidin-4-ylthio)methyl)quinazolin-4(3H)-one hydrochloride] | 1 to 10 µM
O=c1[nH]c(CSC2CCOCC2)nc2cc(NC3CCCCC3)c(F)cc12 [Example 290, 7-(Cyclohexylamino)-6-fluoro-2-(((tetrahydro-2H-pyran-4-yl)thio)methyl)quinazolin-4(3H)-one] | < 1 µM
O=c1[nH]c(CSC2CCOCC2)nc2cc(OCC3CC3)cc(F)c12 [Example 291, 7-(Cyclopropylmethoxy)-5-fluoro-2-(((tetrahydro-2H-pyran-4-yl)thio)methyl)quinazolin-4(3H)-one] | < 1 µM
O=c1[nH]c(CSC2CCOCC2)nc2cc(NCC3CC3)c(F)cc12 [Example 292, 7-((Cyclopropylmethyl)amino)-6-fluoro-2-(((tetrahydro-2H-pyran-4-yl)thio)methyl)quinazolin-4(3H)-one] | < 1 µM
O=c1[nH]c(CS[C@H]2CC[C@H](O)CC2)nc2cc(NC3CCCC3)c(F)cc12 [Example 293, 7-(Cyclopentylamino)-6-fluoro-2-(((trans-4-hydroxycyclohexyl)thio)methyl)quinazolin-4(3H)-one] | < 1 µM
O=c1[nH]c(CSC2CCOCC2)nc2cc(NC3CCCC3)c(F)c(F)c12 [Example 294, 7-(Cyclopentylamino)-5,6-difluoro-2-(((tetrahydro-2H-pyran-4-yl)thio)methyl)quinazolin-4(3H)-one] | < 1 µM
O=c1[nH]c(CSC2CCS(=O)(=O)CC2)nc2cc(NCC3CCC3)c(F)cc12 [Example 296, 7-((Cyclobutylmethyl)amino)-2-(((1,1-dioxidotetrahydro-2H-thiopyran-4-yl)thio)methyl)-6-fluoroquinazolin-4(3H)-one] | < 1 µM
O=c1[nH]c(CSC2CCOCC2)nc2cc(OCC3CCN(CCC(F)(F)F)CC3)cc(F)c12 [Example 298, 5-Fluoro-2-(((tetrahydro-2H-pyran-4-yl)thio)methyl)-7-((1-(3,3,3-trifluoropropyl)piperidin-4-yl)methoxy)quinazolin-4(3H)-one] | < 1 µM
CC(F)(F)CN1CCC(COc2cc(F)c3c(=O)[nH]c(CSC4CCOCC4)nc3c2)CC1 [Example 299, 7-((1-(2,2-Difluoropropyl)piperidin-4-yl)methoxy)-5-fluoro-2-(((tetrahydro-2H-pyran-4-yl)thio)methyl)quinazolin-4(3H)-one] | < 1 µM
O=c1[nH]c(CSC2CCOCC2)nc2cc(OCC3CCN(CC(F)F)CC3)cc(F)c12 [Example 300, 7-((1-(2,2-Difluoroethyl)piperidin-4-yl)methoxy)-5-fluoro-2-(((tetrahydro-2H-pyran-4-yl)thio)methyl)quinazolin-4(3H)-one] | < 1 µM
O=c1[nH]c(CSC2CCOCC2)nc2cc(OCC3CCN(C4COC4)CC3)cc(F)c12 [Example 301, 5-Fluoro-7-((1-(oxetan-3-yl)piperidin-4-yl)methoxy)-2-(((tetrahydro-2H-pyran-4-yl)thio)methyl)quinazolin-4(3H)-one] | < 1 µM
O=c1[nH]c(CSC2CCOCC2)nc2cc(NC3CCN(C4COC4)CC3)cc(F)c12 [Example 302, 5-Fluoro-7-((1-(oxetan-3-yl)piperidin-4-yl)amino)-2-(((tetrahydro-2H-pyran-4-yl)thio)methyl)quinazolin-4(3H)-one] | < 1 µM
O=c1[nH]c(CSC2CCS(=O)(=O)CC2)nc2cc(OCC3CCC3)cc(F)c12 [Example 304, 7-(cyclobutylmethoxy)-2-(((1,1-dioxidotetrahydro-2H-thiopyran-4-yl)thio)methyl)-5-fluoroquinazolin-4(3H)-one] | < 1 µM
CC(C)COc1cc(F)c2c(=O)[nH]c(CSC3CCOCC3)nc2c1 [Example 306, 5-Fluoro-7-isobutoxy-2-(((tetrahydro-2H-pyran-4-yl)thio)methyl)quinazolin-4(3H)-one] | 1 to 10 µM
